# Measurements reported in EP1501797B1, “3-(SUBSTITUTED AMINO)-1H-INDOLE-2-CARBOXYLIC ACID ESTER AND 3-(SUBSTITUTED AMINO)-BENZO[B]THIOPHENE-2-CARBOXYLIC ACID ESTER DERIVATIVES AS INTERLEUKIN-4 GENE EXPRESSION INHIBITORS” (Aventis Pharmaceuticals Inc., priority 2002, dated 2003).
# What was measured:
# Human primary Th1 cells = assay: Human primary Th1 (NYTh1) cells, proliferation (MTS assay); assay type: cell-based; conditions: data from 8 different experiments combined
# Protocol: Briefly, CD4^+CD45RA^+ T cells, isolated from donor peripheral blood mononuclear cells of healthy donors, are educated in the presence of anti-CD3/CD28 antibodies and various growth factors to obtain either a Thl-like or Th2-like phenotypes as determined by the known cytokine profiles of these two cell types.
# Generation of Th1/Th2 cells: Twenty four well plates are coated with 300 µL anti-CD3 Ab (10 µg/ml, in PBS 1-2 h at 37°C or overnight at 4°C), and washed two times with PBS. CD4^+/CD45RA^+ cells at a density of 10^6/ml in RPMI, is prepared and added to RPMI medium containing 10% Hyclone serum/ glutamine and 1-2 µg/ml anti-CD28 Ab. The cells are split in two aliquots. […] The degree of polarization is determined by intracellular staining of cells with anti-IFN-γ and anti-IL-4 antibodies from Pharmingen, and using flow cytometry from Becton Dickinson (BD), according to manufacturers description. […] For compound testing, large quantities of Th1 and Th2 cells derived from a given donor (NYTh1 and NYTh2) were expanded and frozen as aliquots in liquid nitrogen. […]
# Re-stimulation by allogeneic cells: Human PBMCs, to be used as alloantigens, are isolated from freshly drawn blood by Ficoll separation. […] Cells are counted and diluted to a final concentration of 2 x 10^6/ml in medium containing 10 µg/ml PHA and 200 units/ml IL-2. […]
# IL-4 = assay: In vivo ovalbumin (OVA) mouse model, BALF IL-4; parameters: species or system mice; conditions: for IL-4 pg/ml (± SEM): 30 minutes before OVA challenge, BALF 24 hours, vehicle 1220.4 ± 207.7
# Protocol: This model is designed to determine the ability of a test article to modulate an antigen-induced pulmonary inflammatory cell accumulation in sensitized Balb/c mice from Charles River Laboratories. The mice are given a two week time period from arrival date prior to sensitizations.
# On days 0, 7, 14, each animal is injected intraperitoneal (i.p.) with a 0.2 ml Ovalbumin Hydragel solution. Each animal receives 10 µg of Ovalbumin in 0.2 mL of Hydragel, aluminum hydroxide adsorptive gel containing 2% aluminum oxide. […] On day 22, BALF samples are collected from one group of animals and used for cytokine analysis. On day 24, BALF is obtained from a second group of animals and used for differential cell counts.
# Test System: Female Babl/cJ mice (Jackson Laboratories), approximately 6-9 weeks old, each weighing approximately 20 to 25 grams, are divided into ten animals per group.
# Sensitization Regimen: Mice are sensitized by an intraperitoneal injection of 10 µg ovalbumin (OVA) mixed in 4 mg aluminum hydroxide Al(OH)3 gel suspension in 0.2 ml sterile saline on Days 0, 7 and 14. This suspension is prepared one hour before intraperitoneal injection into each mouse. The animals are ready for OVA challenge on Day 21.
# Antigen Challenge: Animals are exposed to aerosolized OVA on day 21 (5% w/v in sterile saline) for 20 minutes. The aerosol is generated by a PARI-Master nebulizer, the outlet of which is connected to a small Plexiglas® chamber containing the animals. Bronchoalveolar lavage is performed on Day 22.
# Method of Study Performance: On day 24, 72 hours following aerosol OVA exposure, a separate group of animals are anesthetized with urethane (0.15 - 0.2 gm/kg) and the trachea is exposed and cannulated. Lungs are lavaged with 2 x 0.5 ml Hank's balanced salt solution without Ca^2+ and Mg^2+ (HBSS; Gibco, Grand Island, NY) containing 0.1% EDTA. Lavage fluid is recovered after 30 sec by gentle aspiration and pooled for each animal. Samples are centrifuged at 2000 rpm for 15 minutes at 5°C. After centrifugation, individual supernatants are stored frozen at -80°C. The resulting pellet is resuspended in 0.5 ml of HBSS containing 0.1% EDTA. Total cells and eosinophils are determined using a Technicon Hl and cytoslides, respectively.
# Administration of the Test/Control Article: The test article and vehicle dosing preparations are administered once to each anesthetized mouse intranasally using a 200 µl pipette at 30-60 minutes prior to OVA challenge. Each animal receives 50 µl (25 µl/nostril) at each time point. Method of Euthanasia: Urethane overdose at in-life completion.
# Compounds administered 30 minutes before aerosol ovalbumin challenge in ova sensitized mice. BALF harvested 24 hours after aerosol challenge. N = 6/group.
# Mice (12 animals per group) are sensitized with 0.2 ml of an AlOH3 hydrogel suspension (2% AlOH3) containing 50 µg/ml ovalbumin on days 0, 7 and 14. […] The glucocorticosteroid budesonide (10 mg/kg) is included as a control. All compounds are given in 0.5% methylcellulose/0.2% Tween 80, intranasally (50µl). After the OVA challenge for 24 hours, the mice underwent bronchoalveolar lavage and IL-4 and IL-13 levels in the BALF are determined by ELISA. Another group of mice underwent bronchoalveolar lavage (72 hours after treatment) to determine the number of the eosinophils (*p<0.05, **p<0.01).
# Compounds are given (30 mg/kg), intranasally, once, 30 min before OVA challenge unless noted otherwise. BAL fluids are collected 24 hours after OVA challenge and the cytokine levels are measured by standard ELISAs.
smiles,measurement,setting,value
"O=C(O)c1[nH]c2ccccc2c1Nc1ccncc1 [Example 28, 3-(4-Pyridinylamino)-1H-indole-2-carboxylic acid]",IC50,Human primary Th1 cells,> 10 µM
same,IL-4 pg/ml (± SEM),IL-4; 3 mg/kg intranasal,835.1 ± 40.4 pg/mL
same,IL-4 pg/ml (± SEM),IL-4; 10 mg/kg intranasal,414.3 ± 115.5 pg/mL
same,IL-4 pg/ml (± SEM),IL-4; 30 mg/kg intranasal,123.9 ± 48.7 pg/mL
same,ED50,"IL-4; Mus musculus, mice, intranasally, FIG. 1, read-out: ED50, allergen-induced IL-4 levels in the BALF",~10 mg/kg
